Literature values, collected in publication PMC10071776, “Binding proteins of destruxin A from Metarhizium against insect cell” (BMC Microbiology, 2023).
Where a SMILES comes first, the peptide text is derived from it. [ ]: non-standard residue; d: D form. dLac(3-vinyl) = C=CC[C@@H](O)C(=O)O; NMeV = CN[C@H](C(=O)O)C(C)C; NMeA = CN[C@@H](C)C(=O)O; βAla = NCCC(=O)O

Key:
[1] = system: tumor; conditions: no reference given
From the text: (§1) The multi-target strategy of destruxin has resulted from the evolution of interactions between Metarhizium spp. and insects. When Metarhizium spp. invades a host insect, it secretes a variety of structurally similar destruxins that attack as many tissues and organs. These produce a diseased state, weakening insect resistance and enabling successfully fungus colonization.

[2] = system: hemocyte ATPase; conditions: higher than DA; ref [13]
From the text: as §1

[3] = system: insects; conditions: no reference given
From the text: as §1

[4] = stated in SPR method; no measurement described, no reference given

Compound | antitumor activity relative to DA [1] | affinity of DB relative to DA [2] [times] | insecticidal activity relative to DA [3] | solubility in water [4]
destruxin B [DB] | greater antitumor activity than DA | 100 | lower insecticidal activity than DA | 
C=CC[C@H]1OC(=O)CCNC(=O)[C@H](C)N(C)C(=O)[C@H](C(C)C)N(C)C(=O)[C@H]([C@@H](C)CC)NC(=O)[C@@H]2CCCN2C1=O [DA, Destruxin A] (cyclo(I[NMeV][NMeA][βAla][dLac(3-vinyl)]P)) |  |  |  | insoluble in water
